Article PMC9101087, “A Sensitive LC-MS/MS Method for the Simultaneous Determination of Two Thia-Analogous Indirubin N-Glycosides and Indirubin-3′-Monoxime in Plasma and Cell Culture Medium” (Molecules, 2022)

Columns and labels:
Assay in all cases: WST-1 cell viability assay, 48-h incubation
Format in all cases: cell-based, human
[1] = tested on: A431 (skin squamous cell carcinoma); settings: A431, WST-1, 48 h, vs. vehicle; even at 3 µM in some (unnamed) cell lines
Procedure: (§1) To test the biological activity of the thia-analogous indirubin N-glycosides that are the focus of the present work, the effects of KD87 and KD85 and their non-glycosylated parent compound KD88 on the viability of various tumor cell lines were initially investigated. The corresponding analyses were performed using the cell lines A375 (melanoma), A431 (skin squamous cell carcinoma), A549 (non-small cell lung carcinoma), U251MG (glioblastoma), and U138MG (glioblastoma).
(§2) Figure 2 Effect of increasing concentrations of KD87 (A), KD85 (B), and KD88 (C) on viability of various cancer cells. A375 (melanoma; black columns), A431 (skin squamous cell carcinoma; dark grey columns), A549 (non-small cell lung carcinoma; grey columns), U251MG (glioblastoma; light grey columns), or U138MG (glioblastoma; white columns) were incubated for 48 h with the appropriate compounds or vehicle followed by determination of cell viability by WST-1 assay. Percent control represents comparison with vehicle-treated cells (100%) in the absence of test substance. Values are mean ± standard error of the mean (SEM) of n = 15 in all panels, except n = 14 for A375 and A431 cells in panel B and n = 14–15 for A375 cells in panel C, from four (A375, A431) or five (A549, U251MG, U138MG) independent experiments. * p ≤ 0.05, ** p ≤ 0.01, *** p ≤ 0.001, **** p ≤ 0.0001 vs. vehicle control; one-way ANOVA with Dunnett’s post hoc test.
(§3) The human melanoma cell line A375 (#300110; RRID:CVCL_0132) as well as the human skin epidermoid carcinoma cell line A431 (#300112; RRID:CVCL_0037) were purchased from CLS Cell Lines Service GmbH (Eppelheim, Germany). The human glioblastoma cell line U251MG (#09063001; RRID:CVCL_0021) was from Sigma-Aldrich Corporation. The human glioblastoma cell line U138MG (#ACC 291; RRID: CVCL_0020) and the human lung carcinoma cell line A549 (#ACC 107, RRID:CVCL_0023) were purchased from DSMZ (Deutsche Sammlung von Mikroorganismen und Zellkulturen GmbH, Braunschweig, Germany).
(§4) Cells were cultured in high-glucose DMEM (with GlutaMAX™-I: A375, A431; with UltraGlutamine^TM I: A549, U251MG, U138MG) supplemented with 10% heat-inactivated FBS, 100 U/mL penicillin, and 100 μg/mL streptomycin and grown in a humidified incubator at 37 °C and 5% CO2. For viability analyses, cells were seeded in 96-well plates at a density of 5000 cells per well in DMEM containing 10% heat-inactivated FBS and cultured for 24 h. All cell experiments with the specific substances were performed in serum-free DMEM supplemented with 100 U/mL penicillin and 100 μg/mL streptomycin, applied after washing the cells with DPBS. The test substances were dissolved in DMSO. The final concentration of DMSO in the incubation media of test substance- and vehicle-treated cells was 1% (v/v).
(§5) After completion of the 48-h incubation, WST-1 reagent (Sigma, Taufkirchen, Germany) was added to the cells to achieve a final dilution of 1:10, and the cells were incubated for an additional 20 min before absorbance was measured at 450 nm, reference wavelength […], using a microplate reader.

[2] = tested on: A375 (melanoma); settings: A375, WST-1, 48 h, vs. vehicle; even at 3 µM in some (unnamed) cell lines
Procedure: as §1, §2, §3, §4, §5

[3] = tested on: A549 (non-small cell lung carcinoma); settings: A549, WST-1, 48 h, vs. vehicle; even at 3 µM in some (unnamed) cell lines
Procedure: as §1, §2, §3, §4, §5

[4] = tested on: U251MG (glioblastoma); settings: WST-1, 48 h, vs. vehicle, even at 3 µM in some (unnamed) cell lines
Procedure: as §1, §2, §3, §4, §5

[5] = tested on: U138MG (glioblastoma); settings: WST-1, 48 h, vs. vehicle, even at 3 µM in some (unnamed) cell lines
Procedure: as §1, §2, §3, §4, §5

Measured: concentration from which significant cytotoxic effects start

O=C1/C(=C2/C(=O)N([C@@H]3O[C@H](CO)[C@@H](O)[C@H](O)[C@@H]3O)c3ccccc32)Sc2ccccc21 [KD85, 3-[3′-oxo-benzo[b]thiophene-2′-(Z)-ylidene]-1-(β-D-mannopyranosyl)-oxindole]
≤ 6 µM: all assays above

O=C1/C(=C2/C(=O)N([C@@H]3O[C@H](CO)[C@@H](O)[C@H](O)[C@H]3O)c3ccccc32)Sc2ccccc21 [KD87, 3-[3′-oxo-benzo[b]thiophen-2′-(Z)-ylidene]-1-(β-D-glucopyranosyl)-oxindole]
≤ 6 µM: all assays above
